# Test results from PMC5218480 (PLoS ONE, 2017).
# Test system: MV-4-11 cells
# Assay: Gene expression microarray analysis (Affymetrix PrimeView) and GSEA
# Assay type: cell-based, human
# Parameters: RFU PODN (11730768_x_at) / Fold change /veh PODN (11730768_x_at) / RFU LINC00158 (11744669_a_at) / Fold change /veh LINC00158 (11744669_a_at) / RFU DUSP10 (11751237_a_at) / Fold change /veh DUSP10 (11751237_a_at) / RFU ID3 (11757404_x_at) / Fold change /veh ID3 (11757404_x_at) / RFU PLEKHG5 (11737974_s_at) / Fold change /veh PLEKHG5 (11737974_s_at) / RFU LRRC4B (11730491_at) / Fold change /veh LRRC4B (11730491_at) / RFU GIMAP4 (11747438_a_at) / Fold change /veh GIMAP4 (11747438_a_at) / RFU KRT8 (11758183_x_at) / Fold change /veh KRT8 (11758183_x_at) / RFU CNN1 (11734310_a_at) / Fold change /veh CNN1 (11734310_a_at) / RFU VPS37D (11726825_at) / Fold change /veh VPS37D (11726825_at) / RFU C10orf10 (11716522_x_at) / Fold change /veh C10orf10 (11716522_x_at) / RFU KIR2DL2 /// KIR2DL4 /// KIR2DL5A /// KIR2DL5B /// KIR2DS1 /// KIR2DS2 /// KIR2DS3 /// KIR2DS4 /// KIR3DL3 /// KIR3DL3 /// KIR3DS1 (11738374_at) / Fold change /veh KIR2DL2 /// KIR2DL4 /// KIR2DL5A /// KIR2DL5B /// KIR2DS1 /// KIR2DS2 /// KIR2DS3 /// KIR2DS4 /// KIR3DL3 /// KIR3DL3 /// KIR3DS1 (11738374_at) / RFU C1QL1 (11718748_at) / Fold change /veh C1QL1 (11718748_at) / RFU TMPRSS4 (11747572_a_at) / Fold change /veh TMPRSS4 (11747572_a_at) / RFU HAMP (11756126_x_at) / Fold change /veh HAMP (11756126_x_at) / RFU RNFT2 (11725882_a_at) / Fold change /veh RNFT2 (11725882_a_at) / RFU NR4A2 (11747474_a_at) / Fold change /veh NR4A2 (11747474_a_at) / RFU ABCC12 (11746883_a_at) / Fold change /veh ABCC12 (11746883_a_at) / RFU TMEM136 (11760407_x_at) / Fold change /veh TMEM136 (11760407_x_at) / RFU CLDN22 /// WWC2 (11732394_at) / Fold change /veh CLDN22 /// WWC2 (11732394_at) / RFU HLA-DPB1 (11760878_x_at) / Fold change /veh HLA-DPB1 (11760878_x_at) / RFU SPINT1 (11716480_a_at) / Fold change /veh SPINT1 (11716480_a_at) / RFU GAP43 (11754022_s_at) / Fold change /veh GAP43 (11754022_s_at) / RFU A4GNT (11735810_at) / Fold change /veh A4GNT (11735810_at) / RFU PRB3 (11715151_x_at) / Fold change /veh PRB3 (11715151_x_at) / RFU TUBB4B (11761932_at) / Fold change /veh TUBB4B (11761932_at) / RFU CAPN14 (11732068_a_at) / Fold change /veh CAPN14 (11732068_a_at) / RFU TMCC2 (11721928_a_at) / Fold change /veh TMCC2 (11721928_a_at) / RFU IRGQ (11745062_a_at) / Fold change /veh IRGQ (11745062_a_at) / RFU FAM174B (11720279_a_at) / Fold change /veh FAM174B (11720279_a_at) / RFU TMPRSS4 (11748680_a_at) / Fold change /veh TMPRSS4 (11748680_a_at) / RFU FAM212B (11763350_a_at) / Fold change /veh FAM212B (11763350_a_at) / RFU PLEKHG5 (11743358_a_at) / Fold change /veh PLEKHG5 (11743358_a_at) / RFU ZSCAN30 (11745921_a_at) / Fold change /veh ZSCAN30 (11745921_a_at) / RFU CMKLR1 (11741424_a_at) / Fold change /veh CMKLR1 (11741424_a_at) / RFU LOC101060620 /// MAPK8IP1 (11723275_at) / Fold change /veh LOC101060620 /// MAPK8IP1 (11723275_at) / RFU SPTSSB (11747773_x_at) / Fold change /veh SPTSSB (11747773_x_at) / RFU PRSS12 (11739890_at) / Fold change /veh PRSS12 (11739890_at) / RFU BIN1 (11741810_x_at) / Fold change /veh BIN1 (11741810_x_at) / RFU WNT11 (11732464_a_at) / Fold change /veh WNT11 (11732464_a_at) / RFU C10orf10 (11716521_a_at) / Fold change /veh C10orf10 (11716521_a_at) / RFU C5orf56 (11738089_at) / Fold change /veh C5orf56 (11738089_at) / RFU CYB561 (11721691_x_at) / Fold change /veh CYB561 (11721691_x_at) / RFU ANKRD19P (11752326_a_at) / Fold change /veh ANKRD19P (11752326_a_at) / RFU OR2T12 /// OR2T33 /// OR2T8 (11738714_s_at) / Fold change /veh OR2T12 /// OR2T33 /// OR2T8 (11738714_s_at) / RFU VCAN (11748164_a_at) / Fold change /veh VCAN (11748164_a_at) / RFU JSRP1 (11732532_at) / Fold change /veh JSRP1 (11732532_at) / RFU KRTAP10-11 (11738290_x_at) / Fold change /veh KRTAP10-11 (11738290_x_at) / RFU MYO3A (11730013_a_at) / Fold change /veh MYO3A (11730013_a_at) / RFU EBF3 (11725865_a_at) / Fold change /veh EBF3 (11725865_a_at) / RFU CAMK2N1 (11719241_x_at) / Fold change /veh CAMK2N1 (11719241_x_at) / RFU C5orf56 (11738088_a_at) / Fold change /veh C5orf56 (11738088_a_at) / RFU OLFML3 (11715873_a_at) / Fold change /veh OLFML3 (11715873_a_at) / RFU LOC100653217 /// NTM (11731650_a_at) / Fold change /veh LOC100653217 /// NTM (11731650_a_at) / RFU MAPK11 (11762145_a_at) / Fold change /veh MAPK11 (11762145_a_at) / RFU FIZ1 (11724087_x_at) / Fold change /veh FIZ1 (11724087_x_at) / RFU OASL (11726364_x_at) / Fold change /veh OASL (11726364_x_at) / RFU SOX15 (11748057_x_at) / Fold change /veh SOX15 (11748057_x_at) / RFU CD79A (11719716_a_at) / Fold change /veh CD79A (11719716_a_at) / RFU HIST1H1D (11736915_at) / Fold change /veh HIST1H1D (11736915_at) / RFU CASKIN2 (11723855_a_at) / Fold change /veh CASKIN2 (11723855_a_at) / RFU LOC730098 (11760151_x_at) / Fold change /veh LOC730098 (11760151_x_at) / RFU OR4N2 (11742367_at) / Fold change /veh OR4N2 (11742367_at) / RFU PRRT2 (11749266_a_at) / Fold change /veh PRRT2 (11749266_a_at) / RFU SNX32 (11753110_a_at) / Fold change /veh SNX32 (11753110_a_at) / RFU CDHR5 (11726645_a_at) / Fold change /veh CDHR5 (11726645_a_at) / RFU RCAN1 (11760418_a_at) / Fold change /veh RCAN1 (11760418_a_at) / RFU FAM167A (11723789_a_at) / Fold change /veh FAM167A (11723789_a_at) / RFU FAM26E (11764081_at) / Fold change /veh FAM26E (11764081_at) / RFU ISYNA1 (11749810_s_at) / Fold change /veh ISYNA1 (11749810_s_at) / RFU ACY1 (11761880_at) / Fold change /veh ACY1 (11761880_at) / RFU 11764098_at / Fold change /veh 11764098_at / RFU SAMD14 (11745864_x_at) / Fold change /veh SAMD14 (11745864_x_at) / RFU NPB (11741838_a_at) / Fold change /veh NPB (11741838_a_at) / RFU TMPRSS6 (11731388_a_at) / Fold change /veh TMPRSS6 (11731388_a_at) / RFU KRTAP10-2 (11738614_at) / Fold change /veh KRTAP10-2 (11738614_at) / RFU ARHGAP8 /// PRR5-ARHGAP8 (11727945_x_at) / Fold change /veh ARHGAP8 /// PRR5-ARHGAP8 (11727945_x_at) / RFU KRTAP5-7 /// NADSYN1 (11734609_at) / Fold change /veh KRTAP5-7 /// NADSYN1 (11734609_at) / RFU RASL12 (11751679_a_at) / Fold change /veh RASL12 (11751679_a_at) / RFU CDKN2B (11736163_a_at) / Fold change /veh CDKN2B (11736163_a_at) / RFU PRF1 (11729649_at) / Fold change /veh PRF1 (11729649_at) / RFU, ZNF638 /// ZNF638-IT1 / Fold change vs veh, ZNF638 /// ZNF638-IT1 / RFU, PANK3 / Fold change vs veh, PANK3 / RFU, SH3YL1 / Fold change vs veh, SH3YL1 / RFU, ZEB2 / Fold change vs veh, ZEB2 / RFU, NRIP1 / Fold change vs veh, NRIP1 / RFU, PTTG1IP / Fold change vs veh, PTTG1IP / RFU, CAPN2 / Fold change vs veh, CAPN2 / RFU, MED14 / Fold change vs veh, MED14 / RFU, SNORA58 / Fold change vs veh, SNORA58 / RFU, C1orf63 / Fold change vs veh, C1orf63 / RFU, LRRFIP1 / Fold change vs veh, LRRFIP1 / RFU, NDUFAF7 / Fold change vs veh, NDUFAF7 / RFU, SLC12A2 / Fold change vs veh, SLC12A2 / RFU, IBTK / Fold change vs veh, IBTK / RFU, ESF1 / Fold change vs veh, ESF1 / Fold change vs veh, TMEM50B / RFU, TAOK1 / Fold change vs veh, TAOK1 / RFU, ACBD3 / Fold change vs veh, ACBD3 / RFU, TMA16 / Fold change vs veh, TMA16 / RFU, RWDD3 / Fold change vs veh, RWDD3 / RFU, BCAT1 / Fold change vs veh, BCAT1 / RFU, EDEM3 / Fold change vs veh, EDEM3 / RFU, TMEM33 / Fold change vs veh, TMEM33 / RFU, WDR75 / Fold change vs veh, WDR75 / RFU, AHCTF1 / Fold change vs veh, AHCTF1 / RFU, TFRC / Fold change vs veh, TFRC / RFU, ZDHHC17 / Fold change vs veh, ZDHHC17 / RFU, NOM1 / Fold change vs veh, NOM1 / RFU, ARL8B / Fold change vs veh, ARL8B / RFU, ZBTB11 / Fold change vs veh, ZBTB11 / RFU, TAMM41 / Fold change vs veh, TAMM41 / RFU, KIAA1704 /// LOC100996395 / Fold change vs veh, KIAA1704 /// LOC100996395 / RFU, ING1 / Fold change vs veh, ING1 / RFU, TRMT61B / Fold change vs veh, TRMT61B / RFU, FUBP3 / Fold change vs veh, FUBP3 / RFU, TP53 / Fold change vs veh, TP53 / RFU, TNKS2 / Fold change vs veh, TNKS2 / RFU, ZFP14 / Fold change vs veh, ZFP14 / RFU, ACTR2 / Fold change vs veh, ACTR2 / RFU, PPP3R1 / Fold change vs veh, PPP3R1 / RFU, PIK3R1 / Fold change vs veh, PIK3R1 / RFU, HNRNPA1 / Fold change vs veh, HNRNPA1 / RFU, RNF170 / Fold change vs veh, RNF170 / RFU, ZNF28 / Fold change vs veh, ZNF28 / RFU, RNGTT / Fold change vs veh, RNGTT / RFU, OGT / Fold change vs veh, OGT / RFU, BRD1 / Fold change vs veh, BRD1 / RFU, MARS / Fold change vs veh, MARS / RFU, ZNF655 / Fold change vs veh, ZNF655 / RFU, FAHD1 / Fold change vs veh, FAHD1 / RFU, BDP1 / Fold change vs veh, BDP1 / RFU, LRRCC1 / Fold change vs veh, LRRCC1 / RFU, ARID1A / Fold change vs veh, ARID1A / RFU, ZNF146 / Fold change vs veh, ZNF146 / RFU, ZNF330 / Fold change vs veh, ZNF330 / RFU, GPN3 / Fold change vs veh, GPN3 / RFU, C9orf123 / Fold change vs veh, C9orf123 / RFU, N4BP2L2 / Fold change vs veh, N4BP2L2 / RFU, ARFIP1 / Fold change vs veh, ARFIP1 / RFU, FAM179B / Fold change vs veh, FAM179B / RFU, BCL10 / Fold change vs veh, BCL10 / RFU, UHRF1BP1L / Fold change vs veh, UHRF1BP1L / RFU, BET1 / Fold change vs veh, BET1 / RFU, CNOT2 / Fold change vs veh, CNOT2 / RFU, ZNF268 / Fold change vs veh, ZNF268 / Fold change vs veh, ZNF507 / RFU, DGCR2 / Fold change vs veh, DGCR2 / RFU, WDSUB1 / Fold change vs veh, WDSUB1 / Fold change vs veh, HSP90B1 /// MIR3652 / RFU, ADSS / Fold change vs veh, ADSS / RFU, GK / Fold change vs veh, GK / RFU, ZNF148 / Fold change vs veh, ZNF148 / RFU, TAF9 / Fold change vs veh, TAF9 / RFU, SLC1A5 / Fold change vs veh, SLC1A5 / RFU, SLMO2 / Fold change vs veh, SLMO2 / RFU, ABCC4 / Fold change vs veh, ABCC4 / RFU, LOC101060439 /// RAP1B / Fold change vs veh, LOC101060439 /// RAP1B / RFU, RFX7 / Fold change vs veh, RFX7 / RFU, GTPBP10 / Fold change vs veh, GTPBP10 / RFU, CNEP1R1 / Fold change vs veh, CNEP1R1 / RFU, BIVM-ERCC5 /// ERCC5 / Fold change vs veh, BIVM-ERCC5 /// ERCC5 / RFU, ILF3 / Fold change vs veh, ILF3 / RFU 11762660_at / Fold change /veh 11762660_at / RFU VCAN (11757783_s_at) / Fold change /veh VCAN (11757783_s_at) / RFU DDX43 (11728927_at) / Fold change /veh DDX43 (11728927_at) / RFU KRT8 (11758188_x_at) / Fold change /veh KRT8 (11758188_x_at) / RFU NKD1 (11759106_at) / Fold change /veh NKD1 (11759106_at) / RFU SRD5A1 (11742802_a_at) / Fold change /veh SRD5A1 (11742802_a_at) / RFU TPSAB1 /// TPSB2 (11721975_s_at) / Fold change /veh TPSAB1 /// TPSB2 (11721975_s_at) / RFU GSTM3 (11746129_a_at) / Fold change /veh GSTM3 (11746129_a_at) / RFU IL23R (11737362_x_at) / Fold change /veh IL23R (11737362_x_at) / RFU TMEM51 (11727254_a_at) / Fold change /veh TMEM51 (11727254_a_at) / RFU PIWIL2 (11732686_x_at) / Fold change /veh PIWIL2 (11732686_x_at) / RFU ORM1 (11744905_x_at) / Fold change /veh ORM1 (11744905_x_at) / RFU CCDC152 (11743942_at) / Fold change /veh CCDC152 (11743942_at) / RFU ECM1 (11717891_a_at) / Fold change /veh ECM1 (11717891_a_at) / RFU IL23R (11748794_a_at) / Fold change /veh IL23R (11748794_a_at) / RFU TNFAIP8L3 (11732012_x_at) / Fold change /veh TNFAIP8L3 (11732012_x_at) / RFU MBOAT4 (11741988_at) / Fold change /veh MBOAT4 (11741988_at) / RFU 11764193_at / Fold change /veh 11764193_at / RFU TMEM53 (11763286_at) / Fold change /veh TMEM53 (11763286_at) / RFU MAGEB2 (11727129_at) / Fold change /veh MAGEB2 (11727129_at) / RFU TMEM200A (11744735_a_at) / Fold change /veh TMEM200A (11744735_a_at) / RFU CCDC152 (11751479_a_at) / Fold change /veh CCDC152 (11751479_a_at) / RFU FAM211A (11726209_a_at) / Fold change /veh FAM211A (11726209_a_at) / RFU RGS16 (11746705_a_at) / Fold change /veh RGS16 (11746705_a_at) / RFU VCAN (11755009_s_at) / Fold change /veh VCAN (11755009_s_at) / RFU RHOB (11743442_s_at) / Fold change /veh RHOB (11743442_s_at) / RFU RGS16 (11720943_a_at) / Fold change /veh RGS16 (11720943_a_at) / RFU RGS16 (11720944_at) / Fold change /veh RGS16 (11720944_at) / RFU, VPS4B / Fold change vs veh, VPS4B / RFU, CREB1 / Fold change vs veh, CREB1 / RFU, DNAJC13 / Fold change vs veh, DNAJC13 / RFU, GNAQ / Fold change vs veh, GNAQ / RFU, CDK5R1 / Fold change vs veh, CDK5R1 / RFU, ZRANB3 / Fold change vs veh, ZRANB3 / RFU, CUL4A / Fold change vs veh, CUL4A / RFU, CCNY / Fold change vs veh, CCNY / RFU, UFL1 / Fold change vs veh, UFL1 / RFU, COG3 / Fold change vs veh, COG3 / RFU, DIAPH2 / Fold change vs veh, DIAPH2 / RFU, SKA2 / Fold change vs veh, SKA2 / RFU, AFF3 / Fold change vs veh, AFF3 / RFU, LMF1 / Fold change vs veh, LMF1 / RFU, IPO11 / Fold change vs veh, IPO11 / RFU, DFFB / Fold change vs veh, DFFB / RFU, FOXP1 / Fold change vs veh, FOXP1 / RFU, CARD8 / Fold change vs veh, CARD8 / RFU, STRN3 / Fold change vs veh, STRN3 / RFU, ADK / Fold change vs veh, ADK / RFU, RASSF2 / Fold change vs veh, RASSF2 / RFU, WIPF1 / Fold change vs veh, WIPF1 / RFU, LARP1B / Fold change vs veh, LARP1B / RFU, RASA1 / Fold change vs veh, RASA1 / RFU, RB1 / Fold change vs veh, RB1 / RFU, PPFIA1 / Fold change vs veh, PPFIA1 / RFU, MAT2A / Fold change vs veh, MAT2A / RFU, CCT5 / Fold change vs veh, CCT5 / RFU, WDR92 / Fold change vs veh, WDR92 / RFU, CUX1 / Fold change vs veh, CUX1 / RFU, TTC7A / Fold change vs veh, TTC7A / RFU, TMEM135 / Fold change vs veh, TMEM135 / RFU, DEPTOR / Fold change vs veh, DEPTOR / RFU, CPM / Fold change vs veh, CPM / RFU, DNAJB6 / Fold change vs veh, DNAJB6 / RFU, CACNA2D3 / Fold change vs veh, CACNA2D3 / RFU, DTX4 / Fold change vs veh, DTX4 / RFU, TFCP2 / Fold change vs veh, TFCP2 / RFU, GMCL1 /// GMCL1P1 / Fold change vs veh, GMCL1 /// GMCL1P1 / RFU, AEBP2 / Fold change vs veh, AEBP2 / RFU, SNHG1 /// SNORD22 /// SNORD25 /// SNORD26 /// SNORD27 /// SNORD28 /// SNORD29 /// SNORD31 / Fold change vs veh, SNHG1 /// SNORD22 /// SNORD25 /// SNORD26 /// SNORD27 /// SNORD28 /// SNORD29 /// SNORD31 / Fold change (Aza/veh), C12orf56 (ProbeSet 11735607_a_at) / Fold change (ACY-1035/veh), C12orf56 (ProbeSet 11735607_a_at) / Fold change (Aza/veh), FGFR1OP (ProbeSet 11751329_s_at) / Fold change (ACY-1035/veh), FGFR1OP (ProbeSet 11751329_s_at) / Fold change (Aza/veh), VPS36 (ProbeSet 11739960_a_at) / Fold change (ACY-1035/veh), VPS36 (ProbeSet 11739960_a_at) / RFU SYPL1 (11715823_x_at) / Fold change /veh SYPL1 (11715823_x_at) / RFU IGFBP7 (11715501_s_at) / Fold change /veh IGFBP7 (11715501_s_at) / RFU REEP3 (11722064_at) / Fold change /veh REEP3 (11722064_at) / RFU IGLL1 (11728026_x_at) / Fold change /veh IGLL1 (11728026_x_at): dose or concentration left out as unconfirmed
# Settings: MV-4-11 cells, 48 hours
smiles,measurement,value
Nc1ccc(-c2cccs2)cc1NC(=O)c1ccc2c(c1)cc(C1CC1)n2CCN1CCOCC1 [ACY-1035],Fold change /veh ARHGAP8 /// PRR5-ARHGAP8 (11727945_x_at),1.04
